# What was measured:
# Experiment in all cases: biochemical
# Type in all cases: biochemical
# [1] = biological target: panel of 391 kinases (Homo sapiens, UniProt Q9UEW8); conditions: STK39/STLK3, MK-28 1 µM, ATP 1 µM
# [2] = biological target: panel of 391 kinases (Homo sapiens, UniProt P22612); conditions: PKAcg, MK-28 1 µM, ATP 1 µM
# [3] = biological target: panel of 391 kinases (Homo sapiens, UniProt P17948); conditions: FLT1/VEGFR1, MK-28 1 µM, ATP 1 µM
# [4] = biological target: panel of 391 kinases (Homo sapiens, UniProt Q9H4A3); conditions: WNK1, MK-28 1 µM, ATP 1 µM
# [5] = biological target: panel of 391 kinases (Homo sapiens, UniProt P09619); conditions: PDGFRb, MK-28 1 µM, ATP 1 µM
# [6] = biological target: panel of 391 kinases (Homo sapiens, UniProt Q8N5S9); conditions: CAMKK1, MK-28 1 µM, ATP 1 µM
# [7] = biological target: panel of 391 kinases (Homo sapiens, UniProt P51957); conditions: NEK4, MK-28 1 µM, ATP 1 µM
# [8] = biological target: panel of 391 kinases (Homo sapiens, UniProt Q9Y463); conditions: DYRK1B, MK-28 1 µM, ATP 1 µM
# [9] = biological target: panel of 391 kinases (Homo sapiens, UniProt P19784); conditions: CK2a2, MK-28 1 µM, ATP 1 µM
# [10] = biological target: panel of 391 kinases (Homo sapiens, UniProt Q9H4B4); conditions: PLK3, MK-28 1 µM, ATP 1 µM
# [11] = biological target: panel of 391 kinases (Homo sapiens, UniProt Q96PN8); conditions: TSSK3/STK22C, MK-28 1 µM, ATP 1 µM
# [12] = biological target: panel of 391 kinases (Homo sapiens, UniProt Q15835); conditions: GRK1, MK-28 1 µM, ATP 1 µM
# [13] = biological target: panel of 391 kinases (Homo sapiens, UniProt P42345); conditions: kinase mTOR/FRAP1, compound at 1 µM, single dose in duplicates, 1 µM ATP
# [14] = biological target: panel of 391 kinases (Homo sapiens, UniProt Q5TCY1); conditions: TTBK1, MK-28 1 µM, ATP 1 µM
# [15] = biological target: panel of 391 kinases (Homo sapiens, UniProt O14757); conditions: CHK1, MK-28 1 µM, ATP 1 µM
# [16] = biological target: panel of 391 kinases (Homo sapiens, UniProt Q56UN5); conditions: YSK4/MAP3K19, MK-28 1 µM, ATP 1 µM
# [17] = biological target: panel of 391 kinases (Homo sapiens, UniProt P06241); conditions: FYN, MK-28 1 µM, ATP 1 µM
# [18] = biological target: panel of 391 kinases (Homo sapiens, UniProt O00311); conditions: CDC7/DBF4, MK-28 1 µM, ATP 1 µM
# [19] = biological target: panel of 391 kinases (Homo sapiens, UniProt P05129); conditions: PKCg, MK-28 1 µM, ATP 1 µM
# [20] = biological target: panel of 391 kinases (Homo sapiens, UniProt Q9P286); conditions: PAK5, MK-28 1 µM, ATP 1 µM
# [21] = biological target: panel of 391 kinases (Homo sapiens, UniProt Q9UQM7); conditions: CAMK2a, MK-28 1 µM, ATP 1 µM
# [22] = biological target: panel of 391 kinases (Homo sapiens, UniProt Q9H1R3); conditions: MLCK2/MYLK2, MK-28 1 µM, ATP 1 µM
# [23] = biological target: panel of 391 kinases (Homo sapiens, UniProt P68400); conditions: CK2a, MK-28 1 µM, ATP 1 µM
# [24] = biological target: panel of 391 kinases (Homo sapiens, UniProt O95819); conditions: HGK/MAP4K4, MK-28 1 µM, ATP 1 µM
# [25] = biological target: panel of 391 kinases (Homo sapiens, UniProt Q7L7X3); conditions: TAOK1, MK-28 1 µM, ATP 1 µM
# [26] = biological target: panel of 391 kinases (Homo sapiens, UniProt O15530); conditions: PDK1/PDPK1, MK-28 1 µM, ATP 1 µM
# [27] = read-out: % Enzyme Activity (relative to DMSO controls)
smiles,measurement,setting,value
CN(/N=C\c1ccc(O)c(O)c1)c1nc(-c2ccccc2)cc(-c2ccccc2)n1 [MK-28],% Enzyme Activity (relative to DMSO controls),[1],106.05%
same,remaining activity at 1 µM,[1]; [27],108%
same,% Enzyme Activity (relative to DMSO controls),[2],92.94%
same,remaining activity at 1 µM,[2]; [27],93.5%
same,% Enzyme Activity (relative to DMSO controls),[3],84.43%
same,remaining activity at 1 µM,[3]; [27],84.8%
same,% Enzyme Activity (relative to DMSO controls),[4],103.91%
same,remaining activity at 1 µM,[4]; [27],104%
same,% Enzyme Activity (relative to DMSO controls),[5],99.16%
same,remaining activity at 1 µM,[5]; [27],99.5%
same,% Enzyme Activity (relative to DMSO controls),[6],101.88%
same,remaining activity at 1 µM,[6]; [27],102%
same,% Enzyme Activity (relative to DMSO controls),[7],89.27%
same,remaining activity at 1 µM,[7]; [27],91.6%
same,% Enzyme Activity (relative to DMSO controls),[8],88.09%
same,remaining activity at 1 µM,[8]; [27],89.9%
same,% Enzyme Activity (relative to DMSO controls),[9],73.33%
same,remaining activity at 1 µM,[9]; [27],78%
same,% Enzyme Activity (relative to DMSO controls),[10],87.19%
same,remaining activity at 1 µM,[10]; [27],91.2%
same,% Enzyme Activity (relative to DMSO controls),[11],86.26%
same,remaining activity at 1 µM,[11]; [27],88%
same,% Enzyme Activity (relative to DMSO controls),[12],96.61%
same,remaining activity at 1 µM,[12]; [27],102%
same,% Enzyme Activity (relative to DMSO controls),[13],93.79%
same,remaining activity at 1 µM,[13]; [27],94.4%
same,% Enzyme Activity (relative to DMSO controls),[14],93.65%
same,remaining activity at 1 µM,[14]; [27],99%
same,% Enzyme Activity (relative to DMSO controls),[15],141.74%
same,remaining activity at 1 µM,[15]; [27],150%
same,% Enzyme Activity (relative to DMSO controls),[16],104.21%
same,remaining activity at 1 µM,[16]; [27],106%
same,% Enzyme Activity (relative to DMSO controls),[17],103.36%
same,remaining activity at 1 µM,[17]; [27],103%
same,% Enzyme Activity (relative to DMSO controls),[18],105.60%
same,remaining activity at 1 µM,[18]; [27],113%
same,% Enzyme Activity (relative to DMSO controls),[19],101.88%
same,remaining activity at 1 µM,[19]; [27],104%
same,% Enzyme Activity (relative to DMSO controls),[20],72.57%
same,remaining activity at 1 µM,[20]; [27],77.2%
same,% Enzyme Activity (relative to DMSO controls),[21],100.97%
same,remaining activity at 1 µM,[21]; [27],103%
same,% Enzyme Activity (relative to DMSO controls),[22],95.96%
same,remaining activity at 1 µM,[22]; [27],96.4%
same,% Enzyme Activity (relative to DMSO controls),[23],76.99%
same,remaining activity at 1 µM,[23]; [27],81.1%
same,% Enzyme Activity (relative to DMSO controls),[24],95.38%
same,remaining activity at 1 µM,[24]; [27],102%
same,% Enzyme Activity (relative to DMSO controls),[25],103.55%
same,remaining activity at 1 µM,[25]; [27],105%
same,% Enzyme Activity (relative to DMSO controls),[26],99.62%
same,remaining activity at 1 µM,[26]; [27],100%

# — PMC7181660, “A novel specific PERK activator reduces toxicity and extends survival in Huntington's disease models” (Scientific Reports, 2020)
